Experimental data taken from PMC12416277, “Phytochemical alkaloids orchestrate immunometabolism against viral infections” (National Science Review, 2025).
Like-named read-outs stand apart in the source and are kept apart here.

Tests used:
[1] = system: H1N1; experiment: Dose-response of infectivity, H1N1 in A549 cells (viral mRNA by qRT-PCR); assay type: cell-based; details: Influenza A virus, H1N1, A549
[2] = system: EMCV; experiment: microbe, parasite or virus in culture; assay type: cell-based, encephalomyocarditis virus (EMCV); details: Cardiovirus A, A549
[3] = system: HSV-1; experiment: microbe, parasite or virus in culture; assay type: cell-based, herpes simplex virus 1 (HSV-1); details: Human alphaherpesvirus 1, A549
[4] = system: H1N1; experiment: Dose-response of infectivity, H1N1 in L929 cells; assay type: cell-based; details: Influenza A virus
[5] = system: EMCV; experiment: microbe, parasite or virus in culture; assay type: cell-based, encephalomyocarditis virus (EMCV); details: Cardiovirus A, L929
[6] = system: HSV-1; experiment: microbe, parasite or virus in culture; assay type: cell-based, herpes simplex virus 1 (HSV-1); details: Human alphaherpesvirus 1, L929
[7] = system: VSV; assay type: cell-based, vesicular stomatitis virus (VSV)
[8] = system: A549 cells; experiment: Transcriptome analysis (RNA-seq, GO, GSEA) of compound-treated A549 cells
[9] = system: VSV; assay type: in vivo, C57/BL6J mice; details: mice, VSV infection
[10] = system: VSV; assay type: cell-based, vesicular stomatitis virus (VSV); details: A549 cells pretreated before infection
[11] = system: H1N1; experiment: H1N1 mRNA in A549 cells pretreated with NPC1 inhibitors; assay type: cell-based, influenza virus A (H1N1); details: A549 cells pretreated before infection
[12] = system: VSV; assay type: cell-based, vesicular stomatitis virus (VSV); remark: listed apart in the source
[13] = system: H1N1; experiment: Antiviral effect in normal/serum-free medium during H1N1 infection of A549 cells; assay type: cell-based, influenza virus A (H1N1); details: serum-free conditions
[14] = target: T1, NPC1 (Homo sapiens, UniProt O15118); assay type: binding; details: […]; read-out: SPR KD
T1 sequence (O15118 23-1278): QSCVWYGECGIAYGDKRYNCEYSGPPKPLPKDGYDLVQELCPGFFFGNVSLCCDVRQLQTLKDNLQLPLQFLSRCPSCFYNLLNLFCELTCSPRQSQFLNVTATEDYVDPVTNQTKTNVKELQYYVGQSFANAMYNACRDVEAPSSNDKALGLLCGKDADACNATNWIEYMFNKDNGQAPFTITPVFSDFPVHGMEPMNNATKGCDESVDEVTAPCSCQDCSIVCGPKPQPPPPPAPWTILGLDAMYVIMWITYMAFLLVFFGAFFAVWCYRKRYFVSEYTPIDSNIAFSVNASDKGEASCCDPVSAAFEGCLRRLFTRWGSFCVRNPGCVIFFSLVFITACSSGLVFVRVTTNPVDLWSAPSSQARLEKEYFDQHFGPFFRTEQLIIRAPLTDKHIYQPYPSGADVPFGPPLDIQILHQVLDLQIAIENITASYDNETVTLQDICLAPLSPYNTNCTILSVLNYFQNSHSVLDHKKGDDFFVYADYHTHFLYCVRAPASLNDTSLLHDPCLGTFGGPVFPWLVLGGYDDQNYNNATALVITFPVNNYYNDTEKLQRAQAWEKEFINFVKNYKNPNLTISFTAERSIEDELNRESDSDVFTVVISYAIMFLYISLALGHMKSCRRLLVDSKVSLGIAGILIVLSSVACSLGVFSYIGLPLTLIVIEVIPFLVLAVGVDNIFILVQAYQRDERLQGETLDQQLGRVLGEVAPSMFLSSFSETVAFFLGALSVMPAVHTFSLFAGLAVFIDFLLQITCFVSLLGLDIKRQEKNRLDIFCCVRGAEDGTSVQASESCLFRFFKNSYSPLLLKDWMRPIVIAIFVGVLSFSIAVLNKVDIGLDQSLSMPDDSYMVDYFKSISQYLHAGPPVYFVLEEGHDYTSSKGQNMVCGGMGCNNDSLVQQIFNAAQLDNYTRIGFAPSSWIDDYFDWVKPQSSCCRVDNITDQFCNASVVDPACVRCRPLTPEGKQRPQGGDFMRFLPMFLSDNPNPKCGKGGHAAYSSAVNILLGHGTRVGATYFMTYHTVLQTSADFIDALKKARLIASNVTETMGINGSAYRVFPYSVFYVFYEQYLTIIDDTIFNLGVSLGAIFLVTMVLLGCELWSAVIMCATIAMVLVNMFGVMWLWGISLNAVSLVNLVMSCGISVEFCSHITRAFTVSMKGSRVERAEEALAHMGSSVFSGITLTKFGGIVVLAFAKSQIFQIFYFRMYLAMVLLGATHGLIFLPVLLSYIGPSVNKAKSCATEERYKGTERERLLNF

For `COc1cc2c3cc1Oc1c(OC)c(OC)cc4c1[C@@H](Cc1ccc(O)c(c1)Oc1ccc(cc1)C[C@@H]3N(C)CC2)N(C)CC4` [Bbm, berbamine], the EC50 [1] was 606 nM, the EC50 [2] was 107 nM and the EC50 [3] was 3270 nM. It also gave an EC50 [4] of 2650 nM, an EC50 [5] of 1500 nM and an EC50 [6] of 360 nM. For the same compound, the “VSV replication (VSV-G protein, immunoblotting)” value [7] was “inhibited”, the “GSEA NES, Response to virus” value ([8]; A549 cells, 10 µM, 24 h) was 1.34 and the “GSEA NES, Sterol metabolic process” value ([8]; A549 cells, 10 µM, 24 h) was 2.29.

`COc1ccc2cc1Oc1ccc(cc1)C[C@H]1c3c(cc4c(c3Oc3cc5c(cc3OC)CCN(C)[C@@H]5C2)OCO4)CCN1C` [Cep, cepharanthine] gave an EC50 [1] of 110 nM, an EC50 [2] of 2090 nM and an EC50 [3] of 3160 nM. For the same compound, the EC50 [4] was 3840 nM, the EC50 [5] was 998 nM and the EC50 [6] was 569 nM. The “VSV replication (VSV-G protein, immunoblotting)” value [7] was “inhibited”, the “GSEA NES, Innate immune response” value ([8]; A549 cells, 10 µM, 24 h) was 1.25 and the “GSEA NES, Sterol metabolic process” value ([8]; A549 cells, 10 µM, 24 h) was 2.19.

`Cc1ccc2c(=O)c3cccc(CC(=O)O)c3oc2c1C` [DMXAA] was tested, and the “IL-6 level in serum” value [9] was “markedly decreased” and the “TNF-α level in serum” value [9] was “markedly decreased”.

`COc1ccc2cc1Oc1ccc(cc1)C[C@H]1c3cc(c(OC)cc3CCN1C)Oc1c(O)c(OC)cc3c1[C@H](C2)N(C)CC3` [Fan, fangchinoline] showed an EC50 [1] of 794 nM, an EC50 [2] of 821 nM and an EC50 [3] of 2550 nM. The EC50 [4] was 537 nM, the EC50 [5] was 1360 nM and the EC50 [6] was 2320 nM. The “VSV replication (VSV-G protein, immunoblotting)” value [7] was “inhibited”, the “GSEA NES, Response to type I interferon” value ([8]; A549 cells, 10 µM, 24 h) was 2.27 and the “GSEA NES, Sterol metabolic process” value ([8]; A549 cells, 10 µM, 24 h) was 2.04. The “expression of antiviral immune-related genes” value ([8]; WT A549 cells, compared among Tet, Fan, Cep, Bbm) was “higher expression”.

In the case of `CCN(CC)CCO[C@H]1CC[C@@]2(C)C(=CC[C@@H]3[C@@H]2CC[C@]2(C)C(=O)CC[C@@H]32)C1` [U18666A], the VSV replication [10] is reported as “effectively blocked”, the H1N1 replication [11] is reported as “effectively blocked” and the “antiviral effect on VSV entry” value ([12]; MβCD pretreatment (cholesterol depleted)) is reported as “abolished”. The “antiviral effect on VSV entry” value ([12]; cholesterol supplementation using MβCD-cholesterol) was “restored inhibition” and the “antiviral effect on H1N1 entry” value [13] was “diminished”.

In the case of `CN(C)CCCN1c2ccccc2CCc2ccccc21` [imipramine], the VSV replication [10] is reported as “effectively blocked” and the H1N1 replication [11] is reported as “effectively blocked”.

With `CCC(C)n1ncn(-c2ccc(N3CCN(c4ccc(OCC5COC(Cn6cncn6)(c6ccc(Cl)cc6Cl)O5)cc4)CC3)cc2)c1=O` (stereo not drawn) [itraconazole] the Kd [14] was 8760 nM, the VSV replication [10] was “effectively blocked” and the H1N1 replication [11] was “effectively blocked”.

For `CC[C@@H]([C@H](C)O)n1ncn(-c2ccc(N3CCN(c4ccc(OC[C@@H]5CO[C@@](Cn6cncn6)(c6ccc(F)cc6F)C5)cc4)CC3)cc2)c1=O` [posaconazole], the VSV replication [10] was “effectively blocked” and the H1N1 replication [11] was “effectively blocked”.
